In brackets after ≈: the same amount, converted by molar mass.
Columns and labels:
P. falciparum D6 = test: Malaria SYBR Green Fluorescence Assay, D6 strain; assay type: cell-based, Plasmodium falciparum
P. falciparum W2 = test: Malaria SYBR Green Fluorescence Assay, W2 strain; assay type: cell-based, Plasmodium falciparum
P. falciparum C235 = test: Malaria SYBR Green Fluorescence Assay, C235 strain; assay type: cell-based, Plasmodium falciparum
[1] = molecular target: hERG potassium ion channel (Homo sapiens, UniProt Q12809); test: hERG patch clamp assay (% inhibition at 10 μM); details: for hERG (% inhibition): 10 μM
Sequence of hERG potassium ion channel (Q12809 whole entry): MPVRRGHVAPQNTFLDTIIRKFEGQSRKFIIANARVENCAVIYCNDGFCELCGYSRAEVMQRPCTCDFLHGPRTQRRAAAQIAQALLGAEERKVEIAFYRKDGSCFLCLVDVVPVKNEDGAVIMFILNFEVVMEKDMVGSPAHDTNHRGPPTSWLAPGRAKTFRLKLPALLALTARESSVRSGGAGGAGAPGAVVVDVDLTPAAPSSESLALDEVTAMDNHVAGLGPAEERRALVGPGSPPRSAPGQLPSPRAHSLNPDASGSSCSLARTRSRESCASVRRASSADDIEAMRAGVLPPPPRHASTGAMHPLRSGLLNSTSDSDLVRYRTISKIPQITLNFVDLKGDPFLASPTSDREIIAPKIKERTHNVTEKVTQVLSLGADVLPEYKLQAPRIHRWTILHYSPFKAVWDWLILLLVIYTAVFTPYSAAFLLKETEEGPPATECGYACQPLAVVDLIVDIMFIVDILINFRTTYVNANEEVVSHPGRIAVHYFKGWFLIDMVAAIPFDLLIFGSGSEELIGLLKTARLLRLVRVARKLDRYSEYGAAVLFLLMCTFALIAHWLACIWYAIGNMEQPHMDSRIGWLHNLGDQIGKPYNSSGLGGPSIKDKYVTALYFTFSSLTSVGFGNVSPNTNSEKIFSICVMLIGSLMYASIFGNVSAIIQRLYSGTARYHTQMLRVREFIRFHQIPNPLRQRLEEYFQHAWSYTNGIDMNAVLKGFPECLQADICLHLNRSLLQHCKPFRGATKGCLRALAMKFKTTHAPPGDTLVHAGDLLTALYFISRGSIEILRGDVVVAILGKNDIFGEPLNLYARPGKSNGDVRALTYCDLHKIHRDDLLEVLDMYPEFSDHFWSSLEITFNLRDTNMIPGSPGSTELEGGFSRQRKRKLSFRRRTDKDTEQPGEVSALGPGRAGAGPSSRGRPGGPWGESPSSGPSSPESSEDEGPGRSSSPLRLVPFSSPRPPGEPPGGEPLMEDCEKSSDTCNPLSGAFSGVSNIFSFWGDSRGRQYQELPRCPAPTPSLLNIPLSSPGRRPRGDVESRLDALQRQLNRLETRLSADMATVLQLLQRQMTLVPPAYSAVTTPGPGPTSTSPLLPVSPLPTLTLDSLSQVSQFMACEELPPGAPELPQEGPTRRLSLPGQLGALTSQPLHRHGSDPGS

P. berghei = test: Thompson Test, in vivo mouse malaria assay; set-up: species or system mice (ICR strain)
[2] = % inhibition at 10 μM, patch clamp
[3] = Plasmodium falciparum, SYBR Green Assay

Row | Compound | D6 (P. falciparum D6; SYBR Green Assay) [ng/mL] | W2 (P. falciparum W2; SYBR Green Assay) [ng/mL] | C235 (P. falciparum C235; SYBR Green Assay) [ng/mL] | hERG [1, 2] [%] | also measured
1 | COc1ncccc1Nc1nc(NC2CC(C)(C)NC(C)(C)C2)nc(C(Cl)(Cl)Cl)n1 [Cmpd 348] | 11 | 9 | 18 | 96 | 
2 | Cc1ccccc1-c1nc(NCCN2CCCC2)nc(C(Cl)(Cl)Cl)n1 [Cmpd 121] | 70 | 42 | 84 | 103 | 
3 | 4-((4-((pyridin-2-ylmethyl)amino)-6-(trichloromethyl)-1,3,5-triazin-2-yl)amino)phenol [Example 14] | 37 | 24 | 36 | 11 | 
4 | CCN1CCCC(Nc2nc(-c3ccc(F)cc3)nc(C(Cl)(Cl)Cl)n2)C1 (centres unmarked) [Cmpd 387] |  |  |  |  | D6 (SYBR Green Assay IC50) (P. falciparum D6): 0.004 µg/mL; W2 (SYBR Green Assay IC50) (P. falciparum W2): 0.007 µg/mL; C235 (SYBR Green Assay IC50) (P. falciparum C235): 0.013 µg/mL; hERG (% inhibition) [1]: 108%
5 | CN1CCC(Nc2nc(-c3ccc(S(C)(=O)=O)cc3)nc(C(Cl)(Cl)Cl)n2)CC1 [Cmpd 77] | 92 | 53 | 131 | 72 | 
6 | CCN(CC)CCNc1nc(Nc2ccc(OC(F)(F)F)cc2)nc(C(Cl)(Cl)Cl)n1 [Cmpd 374] |  |  |  |  | D6 (SYBR Green Assay IC50) (P. falciparum D6): 0.002 µg/mL; W2 (SYBR Green Assay IC50) (P. falciparum W2): 0.005 µg/mL; C235 (SYBR Green Assay IC50) (P. falciparum C235): 0.005 µg/mL; hERG (% inhibition) [1]: 109%
7 | Fc1ccc(-c2nc(NCCCN3CCCC3)nc(C(Cl)(Cl)Cl)n2)cc1 [Cmpd 381] |  |  |  |  | D6 (SYBR Green Assay IC50) (P. falciparum D6): 0.005 µg/mL; W2 (SYBR Green Assay IC50) (P. falciparum W2): 0.009 µg/mL; C235 (SYBR Green Assay IC50) (P. falciparum C235): 0.014 µg/mL; hERG (% inhibition) [1]: 106%
8 | CN1CCCN(c2nc(-c3cc(Cl)cc(Cl)c3)nc(C(Cl)(Cl)Cl)n2)CC1 [Cmpd 205] | 23 | 7 | 26 | 20 | 
9 | CC(C)(C)OC(=O)N1CC2CC1CN2c1nc(-c2ccc(S(C)(=O)=O)cc2)nc(C(Cl)(Cl)Cl)n1 (centres unmarked) [Compound 715, CC(C)(C)OC(═O)N1CC2CC1CN2c3nc(nc(n3)C(Cl)(Cl)Cl)c4ccc(cc4)S(═O)(═O)C] | 126 | 63 | 185 |  | hERG ([1]; hERG activity as % inhibition): 19%
10 | ClC(Cl)(Cl)c1ccc(-c2nc(NCCc3ccccn3)nc(C(Cl)(Cl)Cl)n2)cc1 [Cmpd 163] | 50 | 20 | 61 | 5 | 
11 | CC(CNc1nc(-c2ccc(Cl)c(Cl)c2)nc(C(Cl)(Cl)Cl)n1)N(C)C (centres unmarked) [Example 1, N^1-(4-(3,4-dichlorophenyl)-6-(trichloromethyl)-1,3,5-triazin-2-yl)-N^2,N^2-dimethylpropane-1,2-diamine] |  |  |  |  | IC50 (P. falciparum D6; [3]): 0.0416 µg/mL (≈ 0.0937 µM); IC50 (P. falciparum W2; [3]): 0.0294 µg/mL (≈ 0.0663 µM); IC50 (P. falciparum C235; [3]): 0.0367 µg/mL (≈ 0.0828 µM); hERG ([1]; hERG activity as % inhibition): 95%
12 | CC1(C)CC(Nc2nc(-c3ccc(C(C)(C)C)cc3)nc(C(Cl)(Cl)Cl)n2)CC(C)(C)N1 [Cmpd 321] | 6 | 3 | 11 | 11 | 
13 | NC1(CNC2═NC(═NC(═N2)C2═CC═C(C═C2)C(Cl)(Cl)Cl)C(Cl)(Cl)Cl)CCCCC1 [Compound 666] | 3 | 2 | 5 |  | In vivo Results Thompson Assay (n/N Cures or Suppressive) (P. berghei; (80 × 3): 80 mg/kg for 3 days): (80 × 3) 2/4 Cures
14 | ClC(Cl)(Cl)c1nc(NCCN2CCCC2)nc(-c2ccc(OCc3ccccc3)cc2)n1 [Cmpd 35] | 194 | 125 | 186 | 56 | 
15 | CN1CCCC1CCNc1nc(-c2ccc(F)cc2)nc(C(Cl)(Cl)Cl)n1 (centres unmarked) [Cmpd 382] |  |  |  |  | D6 (SYBR Green Assay IC50) (P. falciparum D6): 0.017 µg/mL; W2 (SYBR Green Assay IC50) (P. falciparum W2): 0.02 µg/mL; C235 (SYBR Green Assay IC50) (P. falciparum C235): 0.036 µg/mL; hERG (% inhibition) [1]: 105%
16 | CN1CCN(CC1)c2ccc(Nc3nc(NCCN4CCCC4)nc(n3)C(Cl)(Cl)Cl)cc2 [Compound 733] | 117 | 36 | 87 |  | hERG ([1]; hERG activity as % inhibition): 55%
17 | Clc1ccc(-c2nc(NCCCCCN3CCCC3)nc(C(Cl)(Cl)Cl)n2)cc1 [Cmpd 561] |  |  |  |  | D6 (SYBR Green Assay IC50) (P. falciparum D6): 0.03967 µg/mL; W2 (SYBR Green Assay IC50) (P. falciparum W2): 0.02784 µg/mL; C235 (SYBR Green Assay IC50) (P. falciparum C235): 0.03869 µg/mL; hERG (% inhibition) [1]: 63%
18 | COc1ccc(-c2nc(NCc3ccncc3)nc(C(Cl)(Cl)Cl)n2)cc1 [Cmpd 130] | 12 | 5 | 24 | 20 | 
19 | CC1(C)CC(Nc2nc(-c3ccccc3)nc(C(Cl)(Cl)Cl)n2)CC(C)(C)N1 [Compound 320] | 11 | 2 | 20 |  | In vivo Results Thompson Assay (n/N Cures or Suppressive) (P. berghei; (40 × 3): 40 mg/kg for 3 days): 1/5; In vivo Results Thompson Assay (n/N Cures or Suppressive) (P. berghei; (80 × 3): 80 mg/kg for 3 days): 4/4

Source: patent publication US9334246B2, “Substituted triazines for malaria treatment and chemoprophylaxis” (The United States of America, as represented by the …, priority 2013, dated 2016)
